# Results as given in ChEMBL document CHEMBL3817755, “Design, synthesis and biological evaluation of indazolepyrimidine based derivatives as anticancer agents with anti-angiogenic and antiproliferative activities” (Medchemcomm, 2016).
# Tests used:
# [1] = molecular target: Aurora kinase A (Homo sapiens) (UniProt O14965); test: Inhibition of Aurora A (unknown origin) at 10 uM
# [2] = Growth inhibition of human OVCAR8 cells after 48 hrs by SRB assay; format: functional; settings: OVCAR-8, 48 h; for CC50: read-out: LC50 (the source's name)
# [3] = test system: U-251; test: Growth inhibition of human U251 cells after 48 hrs by SRB assay; format: functional; settings: U-251, 48 h; for CC50: read-out: LC50 (the source's name)
# [4] = Growth inhibition of human HOP62 cells after 48 hrs by SRB assay; format: functional; settings: HOP-62, 48 h
# [5] = Growth inhibition of human SF295 cells after 48 hrs by SRB assay; format: functional; settings: SF-295, 48 h
# [6] = molecular target: Vascular endothelial growth factor receptor 2 (Homo sapiens, UniProt P35968); test: Inhibition of VEGFR-2 (unknown origin) after 40 mins by Kinase-GloPlus luminescence assay
# [7] = Growth inhibition of human HOP92 cells after 48 hrs by SRB assay; format: functional; settings: HOP-92, 48 h; for CC50: read-out: LC50 (the source's name)
# [8] = Growth inhibition of human HL-60(TB) cells after 48 hrs by SRB assay; format: functional; settings: HL-60, 48 h
# [9] = Growth inhibition of human NCI-ADR-RES cells after 48 hrs by SRB assay; format: functional
# [10] = Growth inhibition of human OVCAR3 cells after 48 hrs by SRB assay; format: functional; settings: OVCAR-3, 48 h; for CC50: read-out: LC50 (the source's name)
# [11] = test system: MCF7; test: Growth inhibition of human MCF7 cells after 48 hrs by SRB assay; format: functional; settings: MCF7, 48 h; for CC50: read-out: LC50 (the source's name)
# [12] = test system: K562; test: Growth inhibition of human K562 cells after 48 hrs by SRB assay; format: functional; settings: K562, 48 h
# [13] = test system: HT-29; test: Growth inhibition of human HT-29 cells after 48 hrs by SRB assay; format: functional; settings: HT-29, 48 h; for CC50: read-out: LC50 (the source's name)
# [14] = molecular target: Hepatocyte growth factor receptor (Homo sapiens) (UniProt P08581); test: Inhibition of c-Met (unknown origin) at 10 uM
# [15] = Growth inhibition of human SF539 cells after 48 hrs by SRB assay; format: functional; settings: SF-539, 48 h
# [16] = Growth inhibition of human RXF393 cells after 48 hrs by SRB assay; format: functional; settings: RXF 393, 48 h
# [17] = Growth inhibition of human SF268 cells after 48 hrs by SRB assay; format: functional; settings: SF-268, 48 h; for CC50: read-out: LC50 (the source's name)
# [18] = test system: 786-0; test: Growth inhibition of human 786-0 cells after 48 hrs by SRB assay; format: functional; settings: 786-0, 48 h; for CC50: read-out: LC50 (the source's name)
# [19] = test system: MDA-MB-468; test: Growth inhibition of human MDA-MB-468 cells after 48 hrs by SRB assay; format: functional; settings: MDA-MB-468, 48 h; for CC50: read-out: LC50 (the source's name)
# [20] = test system: M14; test: Growth inhibition of human M14 cells after 48 hrs by SRB assay; format: functional; settings: M14, 48 h; for CC50: read-out: LC50 (the source's name)
# [21] = test system: A498; test: Growth inhibition of human A498 cells after 48 hrs by SRB assay; format: functional; settings: A498, 48 h; for CC50: read-out: LC50 (the source's name)
# [22] = test system: MDA-MB-435; test: Growth inhibition of human MDA-MB-435 cells after 48 hrs by SRB assay; format: functional; settings: MDA-MB-435, 48 h
# [23] = Growth inhibition of human Caki1 cells after 48 hrs by SRB assay; format: functional; settings: CAKI-1, 48 h; for CC50: read-out: LC50 (the source's name)
# [24] = Growth inhibition of human COLO205 cells after 48 hrs by SRB assay; format: functional; settings: COLO 205, 48 h
# [25] = Growth inhibition of human HCC2998 cells after 48 hrs by SRB assay; format: functional; settings: HCC 2998, 48 h; for CC50: read-out: LC50 (the source's name)
# [26] = test system: EKVX; test: Growth inhibition of human EKVX cells after 48 hrs by SRB assay; format: functional; settings: for CC50: read-out: LC50 (the source's name)
# [27] = Growth inhibition of human OVCAR5 cells after 48 hrs by SRB assay; format: functional; settings: OVCAR-5, 48 h
# [28] = Growth inhibition of human TK10 cells after 48 hrs by SRB assay; format: functional; settings: TK-10, 48 h; for CC50: read-out: LC50 (the source's name)
# [29] = test system: A549; test: Growth inhibition of human A549/ATCC cells after 48 hrs by SRB assay; format: functional; settings: A549, 48 h; for CC50: read-out: LC50 (the source's name)
# [30] = Growth inhibition of human SKOV3 cells after 48 hrs by SRB assay; format: functional; settings: SK-OV-3, 48 h
# [31] = molecular target: Mast/stem cell growth factor receptor Kit (Homo sapiens) (UniProt P10721); test: Inhibition of c-Kit (unknown origin) at 10 uM
# [32] = Growth inhibition of human PC3 cells after 48 hrs by SRB assay; format: functional; settings: PC-3, 48 h
# [33] = test system: SR; test: Growth inhibition of human SR cells after 48 hrs by SRB assay; format: functional; settings: for CC50: read-out: LC50 (the source's name)
# [34] = test system: NCI-H226; test: Growth inhibition of human NCI-H226 cells after 48 hrs by SRB assay; format: functional; settings: NCI-H226, 48 h; for CC50: read-out: LC50 (the source's name)
# [35] = read-out: LC50 (the source's name)
# Chain of Vascular endothelial growth factor receptor 2 (P35968 whole entry): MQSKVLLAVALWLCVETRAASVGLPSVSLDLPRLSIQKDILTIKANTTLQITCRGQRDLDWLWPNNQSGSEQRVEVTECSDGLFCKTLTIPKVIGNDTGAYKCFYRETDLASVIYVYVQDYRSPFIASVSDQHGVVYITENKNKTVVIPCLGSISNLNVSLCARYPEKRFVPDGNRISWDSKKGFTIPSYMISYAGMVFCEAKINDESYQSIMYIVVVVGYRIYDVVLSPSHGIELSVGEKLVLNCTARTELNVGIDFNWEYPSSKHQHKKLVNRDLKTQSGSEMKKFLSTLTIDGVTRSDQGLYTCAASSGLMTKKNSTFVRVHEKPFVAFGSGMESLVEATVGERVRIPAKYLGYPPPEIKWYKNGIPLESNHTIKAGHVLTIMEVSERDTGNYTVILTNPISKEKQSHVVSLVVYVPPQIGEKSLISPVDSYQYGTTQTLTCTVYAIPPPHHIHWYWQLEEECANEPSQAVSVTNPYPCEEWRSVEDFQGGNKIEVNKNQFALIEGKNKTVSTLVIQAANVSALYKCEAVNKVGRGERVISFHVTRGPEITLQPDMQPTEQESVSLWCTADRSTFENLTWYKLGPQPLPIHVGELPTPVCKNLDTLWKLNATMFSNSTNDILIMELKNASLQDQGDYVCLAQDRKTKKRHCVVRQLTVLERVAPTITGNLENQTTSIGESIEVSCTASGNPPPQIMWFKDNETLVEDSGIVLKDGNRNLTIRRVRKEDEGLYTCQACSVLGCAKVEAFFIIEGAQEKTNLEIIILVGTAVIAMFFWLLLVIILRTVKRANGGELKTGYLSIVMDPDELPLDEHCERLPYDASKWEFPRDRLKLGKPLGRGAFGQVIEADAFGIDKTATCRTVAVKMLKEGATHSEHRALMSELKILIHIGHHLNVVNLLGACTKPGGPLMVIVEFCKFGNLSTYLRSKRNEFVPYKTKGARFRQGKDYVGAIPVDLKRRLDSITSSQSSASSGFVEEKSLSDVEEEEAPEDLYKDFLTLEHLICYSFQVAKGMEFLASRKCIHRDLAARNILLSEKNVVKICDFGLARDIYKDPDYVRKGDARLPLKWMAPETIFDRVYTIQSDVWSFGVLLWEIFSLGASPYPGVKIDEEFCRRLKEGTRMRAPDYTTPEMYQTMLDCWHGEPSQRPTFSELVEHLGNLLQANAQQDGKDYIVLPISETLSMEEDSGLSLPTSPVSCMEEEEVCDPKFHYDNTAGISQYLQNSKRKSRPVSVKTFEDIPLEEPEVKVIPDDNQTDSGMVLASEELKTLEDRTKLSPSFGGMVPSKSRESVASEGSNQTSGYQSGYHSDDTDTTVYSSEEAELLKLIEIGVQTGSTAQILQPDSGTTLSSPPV
# Chain of Mast/stem cell growth factor receptor Kit (Homo sapiens) (P10721 whole entry): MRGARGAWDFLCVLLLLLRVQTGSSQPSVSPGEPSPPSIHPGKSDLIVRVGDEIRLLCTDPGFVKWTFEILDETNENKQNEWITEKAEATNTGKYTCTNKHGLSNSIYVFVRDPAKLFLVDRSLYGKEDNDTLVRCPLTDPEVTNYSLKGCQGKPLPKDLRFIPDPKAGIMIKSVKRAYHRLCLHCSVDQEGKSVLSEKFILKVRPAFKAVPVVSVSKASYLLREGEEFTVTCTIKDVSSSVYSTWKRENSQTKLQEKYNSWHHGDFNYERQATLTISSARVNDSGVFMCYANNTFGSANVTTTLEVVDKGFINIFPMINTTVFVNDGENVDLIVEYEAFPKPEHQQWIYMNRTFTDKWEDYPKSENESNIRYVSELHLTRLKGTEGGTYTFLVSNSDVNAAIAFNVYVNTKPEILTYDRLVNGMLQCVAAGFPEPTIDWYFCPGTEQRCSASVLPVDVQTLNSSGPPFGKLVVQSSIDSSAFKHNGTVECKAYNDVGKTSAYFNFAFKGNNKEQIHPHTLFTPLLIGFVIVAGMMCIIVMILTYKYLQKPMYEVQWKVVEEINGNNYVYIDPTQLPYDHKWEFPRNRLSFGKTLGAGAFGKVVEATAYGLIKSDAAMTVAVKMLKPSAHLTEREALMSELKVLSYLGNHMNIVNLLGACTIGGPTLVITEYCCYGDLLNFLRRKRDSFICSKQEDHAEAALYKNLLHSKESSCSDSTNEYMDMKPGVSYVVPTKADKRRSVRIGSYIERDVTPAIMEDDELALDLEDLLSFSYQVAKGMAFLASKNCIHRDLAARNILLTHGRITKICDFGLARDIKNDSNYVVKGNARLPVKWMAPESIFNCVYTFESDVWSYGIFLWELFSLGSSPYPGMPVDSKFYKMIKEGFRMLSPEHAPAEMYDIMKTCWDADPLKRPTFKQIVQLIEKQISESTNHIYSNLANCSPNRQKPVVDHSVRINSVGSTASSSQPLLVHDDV
# Chain of Aurora kinase A (Homo sapiens) (O14965 whole entry): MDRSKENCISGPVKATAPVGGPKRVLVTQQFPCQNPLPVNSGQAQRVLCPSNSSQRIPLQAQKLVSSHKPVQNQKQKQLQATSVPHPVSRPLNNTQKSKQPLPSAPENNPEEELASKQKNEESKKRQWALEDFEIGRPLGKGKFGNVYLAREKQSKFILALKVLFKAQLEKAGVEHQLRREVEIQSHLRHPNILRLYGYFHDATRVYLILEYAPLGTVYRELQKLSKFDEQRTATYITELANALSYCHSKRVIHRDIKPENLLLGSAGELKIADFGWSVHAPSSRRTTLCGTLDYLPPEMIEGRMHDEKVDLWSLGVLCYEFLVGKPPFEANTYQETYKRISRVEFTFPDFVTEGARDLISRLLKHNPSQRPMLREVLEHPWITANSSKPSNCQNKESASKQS
# Chain of Hepatocyte growth factor receptor (Homo sapiens) (P08581 whole entry): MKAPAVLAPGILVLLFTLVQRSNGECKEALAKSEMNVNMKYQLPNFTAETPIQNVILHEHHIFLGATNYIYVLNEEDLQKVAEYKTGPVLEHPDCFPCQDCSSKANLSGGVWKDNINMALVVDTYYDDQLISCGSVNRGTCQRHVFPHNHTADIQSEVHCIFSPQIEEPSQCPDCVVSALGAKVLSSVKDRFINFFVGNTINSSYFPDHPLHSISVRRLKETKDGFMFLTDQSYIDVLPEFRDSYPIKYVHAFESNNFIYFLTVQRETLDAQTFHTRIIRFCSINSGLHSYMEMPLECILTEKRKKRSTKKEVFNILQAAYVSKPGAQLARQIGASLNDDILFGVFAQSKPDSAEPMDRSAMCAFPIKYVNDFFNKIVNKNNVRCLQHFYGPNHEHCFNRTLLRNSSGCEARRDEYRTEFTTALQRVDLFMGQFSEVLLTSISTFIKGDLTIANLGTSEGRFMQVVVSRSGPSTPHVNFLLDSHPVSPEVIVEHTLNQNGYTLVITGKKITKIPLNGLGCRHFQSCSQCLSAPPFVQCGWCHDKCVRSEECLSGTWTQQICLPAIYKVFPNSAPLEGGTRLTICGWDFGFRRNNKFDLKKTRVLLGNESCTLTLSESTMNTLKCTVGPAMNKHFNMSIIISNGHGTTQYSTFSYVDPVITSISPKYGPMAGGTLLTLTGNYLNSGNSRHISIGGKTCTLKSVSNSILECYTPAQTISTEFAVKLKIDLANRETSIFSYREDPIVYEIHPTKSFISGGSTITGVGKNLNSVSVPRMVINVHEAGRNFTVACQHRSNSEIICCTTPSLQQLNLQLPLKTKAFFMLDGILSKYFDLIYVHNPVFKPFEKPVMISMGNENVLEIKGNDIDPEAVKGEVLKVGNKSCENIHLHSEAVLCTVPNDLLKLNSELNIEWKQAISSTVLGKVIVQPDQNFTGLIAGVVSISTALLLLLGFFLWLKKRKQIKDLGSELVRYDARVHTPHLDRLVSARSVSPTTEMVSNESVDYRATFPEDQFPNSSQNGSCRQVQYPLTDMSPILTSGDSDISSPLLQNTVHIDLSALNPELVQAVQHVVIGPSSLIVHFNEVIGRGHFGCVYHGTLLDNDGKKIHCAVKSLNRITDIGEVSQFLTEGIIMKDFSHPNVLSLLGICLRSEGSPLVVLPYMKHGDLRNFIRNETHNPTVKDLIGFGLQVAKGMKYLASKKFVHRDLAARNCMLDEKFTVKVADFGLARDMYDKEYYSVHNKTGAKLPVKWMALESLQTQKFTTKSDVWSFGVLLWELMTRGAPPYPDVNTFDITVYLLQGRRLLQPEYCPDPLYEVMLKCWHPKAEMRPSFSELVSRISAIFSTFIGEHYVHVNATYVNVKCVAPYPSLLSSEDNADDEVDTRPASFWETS
compound,measurement,setting,value
COc1ccc(Nc2nccc(Nc3ccc4[nH]ncc4c3)n2)cc1,inhibition,[1],91%
same,GI50,[2],2.24 µM
same,TGI,[2],5.39 µM
same,CC50,[2],> 100 µM
same,GI50,[3],3.61 µM
same,TGI,[3],13.6 µM
same,CC50,[3],36.9 µM
same,GI50,[4],2.27 µM
same,LC50,[4],19.4 µM
same,TGI,[4],5.76 µM
same,GI50,[5],3.78 µM
same,LC50 (concentration killing 50% of cells),[5],37.1 µM
same,TGI,[5],13.8 µM
same,IC50,[6],0.117 µM
same,GI50,[7],3.13 µM
same,TGI,[7],12.9 µM
same,CC50,[7],44.5 µM
same,GI50,[8],2.05 µM
same,LC50,[8],> 100 µM
same,TGI,[8],4.67 µM
same,GI50,[9],2.18 µM
same,LC50,[9],29.4 µM
same,TGI,[9],5.75 µM
same,GI50,[10],3.15 µM
same,TGI,[10],10.6 µM
same,CC50,[10],44 µM
same,GI50,[11],2.05 µM
same,TGI,[11],5.36 µM
same,CC50,[11],> 100 µM
same,GI50,[12],2.1 µM
same,LC50,[12],> 100 µM
same,TGI,[12],4.67 µM
same,GI50,[13],2.36 µM
same,TGI,[13],8.33 µM
same,CC50,[13],39.7 µM
same,inhibition,[14],42%
same,GI50,[15],4.38 µM
same,TGI,[15],16.8 µM
same,CC50,[15]; [35],51.3 µM
same,GI50,[16],1.98 µM
same,LC50 (50% lethal concentration),[16],24.3 µM
same,TGI,[16],6.45 µM
same,GI50,[17],4.2 µM
same,TGI,[17],28.6 µM
same,CC50,[17],> 100 µM
same,GI50,[18],1.74 µM
same,TGI,[18],4.75 µM
same,CC50,[18],16.1 µM
same,GI50,[19],1.7 µM
same,TGI,[19],4.55 µM
same,CC50,[19],20.6 µM
same,GI50,[20],2.39 µM
same,TGI,[20],6.15 µM
same,CC50,[20],21.2 µM
same,GI50,[21],4.62 µM
same,TGI,[21],17.2 µM
same,CC50,[21],41.4 µM
same,GI50,[22],2.1 µM
same,LC50,[22],20.1 µM
same,TGI,[22],5.7 µM
same,GI50,[23],2.22 µM
same,TGI,[23],14.9 µM
same,CC50,[23],38.6 µM
same,GI50,[24],2.59 µM
same,LC50,[24],25.4 µM
same,TGI,[24],7.21 µM
same,GI50,[25],2.88 µM
same,TGI,[25],8.05 µM
same,CC50,[25],27.6 µM
same,GI50,[26],5 µM
same,TGI,[26],17.9 µM
same,CC50,[26],42.3 µM
same,GI50,[27],3.33 µM
same,TGI,[27],> 100 µM
same,CC50,[27]; [35],> 100 µM
same,GI50,[28],2.45 µM
same,TGI,[28],9.55 µM
same,CC50,[28],31 µM
same,GI50,[29],3.46 µM
same,TGI,[29],14.3 µM
same,CC50,[29],78.8 µM
same,GI50,[30],7.04 µM
same,LC50,[30],58.8 µM
same,TGI,[30],21.7 µM
same,inhibition,[31],85%
same,GI50,[32],2.21 µM
same,LC50,[32],50.4 µM
same,TGI,[32],7.2 µM
same,GI50,[33],1.75 µM
same,TGI,[33],4.67 µM
same,CC50,[33],> 100 µM
same,GI50,[34],2.3 µM
same,TGI,[34],5.77 µM
same,CC50,[34],> 100 µM
COc1cccc(Nc2nccc(Nc3ccc4[nH]ncc4c3)n2)c1,inhibition,[1],76%
same,GI50,[2],1.67 µM
same,TGI,[2],4.39 µM
same,CC50,[2],13.4 µM
same,GI50,[3],1.58 µM
same,TGI,[3],3.18 µM
same,CC50,[3],6.39 µM
same,GI50,[4],1.71 µM
same,LC50,[4],8.36 µM
same,TGI,[4],3.78 µM
same,GI50,[5],1.66 µM
same,LC50 (concentration killing 50% of cells),[5],6.04 µM
same,TGI,[5],3.17 µM
same,IC50,[6],0.081 µM
same,GI50,[7],1.45 µM
same,TGI,[7],4.14 µM
same,CC50,[7],15.3 µM
same,GI50,[8],1.53 µM
same,LC50,[8],8.29 µM
same,TGI,[8],3.56 µM
same,GI50,[9],1.54 µM
same,LC50,[9],14.8 µM
same,TGI,[9],4.36 µM
same,GI50,[10],1.58 µM
same,TGI,[10],4.07 µM
same,CC50,[10],11.1 µM
same,GI50,[11],1.26 µM
same,TGI,[11],3.11 µM
same,CC50,[11],7.53 µM
same,GI50,[12],1.3 µM
same,LC50,[12],7.13 µM
same,TGI,[12],3.89 µM
same,GI50,[13],1.52 µM
same,TGI,[13],3.45 µM
same,CC50,[13],7.83 µM
same,inhibition,[14],54%
same,GI50,[16],1.06 µM
same,LC50 (50% lethal concentration),[16],5.1 µM
same,TGI,[16],2.33 µM
same,GI50,[17],1.86 µM
same,TGI,[17],5.89 µM
same,CC50,[17],22.5 µM
same,GI50,[18],1.46 µM
same,TGI,[18],2.91 µM
same,CC50,[18],5.82 µM
same,GI50,[19],1.25 µM
same,TGI,[19],2.77 µM
same,CC50,[19],6.13 µM
same,GI50,[20],1.35 µM
same,TGI,[20],2.81 µM
same,CC50,[20],5.83 µM
same,GI50,[21],1.65 µM
same,TGI,[21],5.3 µM
same,CC50,[21],30.5 µM
same,GI50,[22],1.49 µM
same,LC50,[22],6.78 µM
same,TGI,[22],3.18 µM
same,GI50,[23],0.99 µM
same,TGI,[23],2.51 µM
same,CC50,[23],6.33 µM
same,GI50,[24],1.57 µM
same,LC50,[24],6.76 µM
same,TGI,[24],3.26 µM
same,GI50,[25],1.79 µM
same,TGI,[25],3.36 µM
same,CC50,[25],6.29 µM
same,GI50,[26],1.64 µM
same,TGI,[26],4.09 µM
same,CC50,[26],10.5 µM
same,GI50,[28],1.42 µM
same,TGI,[28],2.82 µM
same,CC50,[28],5.6 µM
same,GI50,[29],1.71 µM
same,TGI,[29],3.74 µM
same,CC50,[29],8.22 µM
same,GI50,[30],2.31 µM
same,LC50,[30],16.4 µM
same,TGI,[30],5.4 µM
same,inhibition,[31],80%
same,GI50,[32],1.34 µM
same,LC50,[32],7.23 µM
same,TGI,[32],3.12 µM
same,GI50,[33],1.34 µM
same,TGI,[33],4.93 µM
same,CC50,[33],20.6 µM
same,GI50,[34],1.82 µM
same,TGI,[34],4.46 µM
same,CC50,[34],14.8 µM
